Experimental data from US8247612B2, “Organic sulfur compound and its use for controlling harmful arthropod” (Sumitomo Chemical Company, Limited, priority 2007, dated 2012).

Columns and labels:
Format in all cases: in vivo
[1] = system: Culex pipiens pallens; experiment: Test Example 4: larvae in treated water, death rate of Culex pipiens pallens; conditions: 24 h, active ingredient concentration 3.5 ppm in water, 20 last-instar larvae, after one day
Experimental: Preparations of the present compounds (1), (2), (3), (4), (5), (6), (9), (10), (11), (12), (14), (15), (16), (17), (19), (20), (22), (23), (24), (26), (27), (28), (29), (30) and (31) obtained according to Formulation Example 36 were diluted so that the active ingredient concentration was 500 ppm to obtain test solutions. To 100 mL of ion-exchanged water, 0.7 ml of the test solution was added (active ingredient concentration: 3.5 ppm). Into the solution, 20 last-instar larvae of Culex pipiens pallens were released. After one day, the number of surviving Culex pipiens pallens was examined and the death rate of the pest was calculated. As a result, in treatments with the present compounds (1), (2), (3), (4), (5), (6), (9), (10), (11), (12), (14), (15), (16), (17), (19), (20), (22), (23), (24), (26), (27), (28), (29), (30) and (31), the death rate of the pest was 90% or more.

[2] = system: Musca domestica; experiment: Test Example 2: treated filter paper with sucrose bait, death rate of Musca domestica; conditions: 500 ppm test solution, 0.7 ml on filter paper, 10 female imagoes, after 24 hours
Experimental: Preparations of the present compounds (2), (3), (5), (6), (9), (10), (11), (12), (13), (14), (15), (16), (17), (19), (20), (24), (25), (26), (28), (29), (30) and (31) obtained according to Formulation Example 36 were diluted so that the active ingredient concentration was 500 ppm to obtain test solutions.
(§1) A filter paper having a diameter of 5.5 cm was spread on the bottom of a polyethylene cup having a diameter of 5.5 cm and 0.7 ml of the test solution was added dropwise onto the filter paper. As a bait 30 mg of sucrose was uniformly placed on the filter paper. Into the polyethylene cup, 10 female imagoes of Musca domestica were released and the cup was sealed with a lid. After 24 hours, the number of surviving Musca domestica was examined and the death rate of the pest was calculated.
As a result, in treatments with the present compounds (2), (3), (5), (6), (9), (10), (11), (12), (13), (14), (15), (16), (17), (19), (20), (24), (25), (26), (28), (29), (30) and (31), the death rate of the pest was 70% or more.

[3] = system: Blattalla germanica; experiment: Test Example 3: treated filter paper with sucrose bait, death rate of Blattalla germanica; conditions: 144 h; 500 ppm test solution, 0.7 ml on filter paper; 2 male imagoes; after 6 days
Experimental: Preparations of the present compounds (2), (3), (5), (6), (10), (11), (12), (14), (15), (16), (17), (19), (20), (24), (25), (26), (29), (30) and (31) obtained according to Formulation Example 36 were diluted so that the active ingredient concentration was 500 ppm to obtain test solutions.
as §1, with “2 male” for “10 female”, “Blattalla germanica” for “Musca domestica”, “6 days,” for “24 hours,”
As a result, in treatments with the present compounds (2), (3), (5), (6), (10), (11), (12), (14), (15), (16), (17), (19), (20), (24), (25), (26), (29), (30) and (31), the death rate of the pest was 100%.

[4] = system: Haemaphysalis longicornis; experiment: Test Example 5: treated filter paper pouch, death rate of ticks; conditions: filter paper treated with 100 mg/m^2; non-blood-sucking nymphal ticks, 10 ticks/group; after 2 days
Experimental: Five milligrams of any one of the present compounds (3), (10), (14), (15), (16) and (17) was dissolved in 10 mL of acetone. One milliliter of the acetone solution was uniformly applied on one side of a filter paper (TOYO No. 2; 5×10 cm), so that the filter paper was treated with 100 mg/m^2 of the present compound. After drying, the filter paper was folded in two and its edges were clipped to make a pouch. Non-blood-sucking nymphal ticks (Haemaphysalis longicornis, 10 ticks/group) were put into the pouch, and the pouch was sealed with clips. After 2 days, the number of surviving ticks was examined and the death rate was calculated. As a result, in treatments with the present compounds (3), (10), (14), (15), (16) and (17), the death rate of the tick was 90%.

| SMILES | pest or weed control at 3.5 ppm [1] [%] | pest or weed control at 500 ppm [2] [%] | pest or weed control at 500 ppm [3] [%] | death rate of the tick [4] [%] |
| --- | --- | --- | --- | --- |
| CCC(CCC(C(=O)OC)S(=O)(=O)CCC(F)(F)F)C(F)(F)F (stereo not shown) [present compound (4), methyl 5-trifluoromethyl-2-(3,3,3-trifluoropropylsulfonyl)heptanoate] | ≥ 90 | – | – | – |
| CCC(CCC(C)(C(N)=O)S(=O)(=O)CCC(F)(F)F)C(F)(F)F (stereo not shown) [present compound (13), 2-methyl-5-(trifluoromethyl)-2-(3,3,3-trifluoropropylsulfonyl)heptanamide] | – | ≥ 70 | – | – |
| CC(C)(C)C(CCC(Cl)(C(N)=O)S(=O)(=O)CCC(F)(F)F)C(F)(F)F (stereo not shown) [present compound (9), 2-chloro-6,6-dimethyl-5-trifluoromethyl-2-(3,3,3-trifluoropropylsulfonyl)heptanamide] | ≥ 90 | ≥ 70 | – | – |
| COC(=O)C(Cl)(CCC(OC)C(F)(F)F)S(=O)(=O)CCC(F)(F)F (stereo not shown) [present compound (25), methyl 2-chloro-6,6,6-trifluoro-5-methoxy-2-(3,3,3-trifluoropropylsulfonyl)hexanoate] | – | ≥ 70 | 100 | – |
| CCC(CCC(Cl)(C(N)=O)S(=O)(=O)CCC(F)(F)F)C(F)(F)F (stereo not shown) [present compound (6), 2-chloro-5-trifluoromethyl-2-(3,3,3-trifluoropropylsulfonyl)heptanamide] | ≥ 90 | ≥ 70 | 100 | – |
| CSC(CCC(Cl)(C(N)=O)S(=O)(=O)CCC(F)(F)F)C(F)(F)F (stereo not shown) [present compound (29), 2-chloro-6,6,6-trifluoro-5-methylthio-2-(3,3,3-trifluoropropylsulfonyl)hexanamide] | ≥ 90 | ≥ 70 | 100 | – |
| COC(=O)C(CCC(OC)C(F)(F)F)S(=O)(=O)CCC(F)(F)F (stereo not shown) [present compound (24), methyl 6,6,6-trifluoro-5-methoxy-2-(3,3,3-trifluoropropylsulfonyl)hexanoate] | ≥ 90 | ≥ 70 | 100 | – |
| CCC(CCC(C)(C#N)S(=O)(=O)CCC(F)(F)F)C(F)(F)F (stereo not shown) [present compound (17), 2-methyl-5-(trifluoromethyl)-2-(3,3,3-trifluoropropylsulfonyl)heptanenitrile] | ≥ 90 | ≥ 70 | 100 | 90 |
| CCC(CCC(F)(C(N)=O)S(=O)(=O)CCC(F)(F)F)C(F)(F)F (stereo not shown) [present compound (12), 2-fluoro-5-(trifluoromethyl)-2-(3,3,3-trifluoropropylsulfonyl)heptanamide] | ≥ 90 | ≥ 70 | 100 | – |
| COC(=O)C(Cl)(CCC(C)C(F)(F)F)S(=O)(=O)CCC(F)(F)F (stereo not shown) [present compound (2), methyl 2-chloro-6,6,6-trifluoro-5-methyl-2-(3,3,3-trifluoropropylsulfonyl)hexanoate] | ≥ 90 | ≥ 70 | 100 | – |
| COC(=O)C(Cl)(CCC(SC)C(F)(F)F)S(=O)(=O)CCC(F)(F)F (stereo not shown) [present compound (28), methyl 2-chloro-6,6,6-trifluoro-5-methylthio-2-(3,3,3-trifluoropropylsulfonyl)hexanoate] | ≥ 90 | ≥ 70 | – | – |
| CCC(CCC(Cl)(C(=O)OC)S(=O)(=O)CCC(F)(F)F)C(F)(F)F (stereo not shown) [present compound (5), methyl 2-chloro-5-trifluoromethyl-2-(3,3,3-trifluoropropylsulfonyl)heptanoate] | ≥ 90 | ≥ 70 | 100 | – |
| CCCC(CCC(Cl)(C(N)=O)S(=O)(=O)CCC(F)(F)F)C(F)(F)F (stereo not shown) [present compound (23), 2-chloro-5-(trifluoromethyl)-2-(3,3,3-trifluoropropylsulfonyl)octanamide] | ≥ 90 | – | – | – |
| COC(=O)C(CCC(SC)C(F)(F)F)S(=O)(=O)CCC(F)(F)F (stereo not shown) [present compound (27), methyl 6,6,6-trifluoro-5-methylthio-2-(3,3,3-trifluoropropylsulfonyl)hexanoate] | ≥ 90 | – | – | – |
| COC(=O)C(Cl)(CCC(C(C)C)C(F)(F)F)S(=O)(=O)CCC(F)(F)F (stereo not shown) [present compound (19), methyl 2-chloro-6-methyl-5-(trifluoromethyl)-2-(3,3,3-trifluoropropylsulfonyl)heptanoate] | ≥ 90 | ≥ 70 | 100 | – |
| CCCC(CCC(Cl)(C(=O)OC)S(=O)(=O)CCC(F)(F)F)C(F)(F)F (stereo not shown) [present compound (22), methyl 2-chloro-5-(trifluoromethyl)-2-(3,3,3-trifluoropropylsulfonyl)octanoate] | ≥ 90 | – | – | – |
| CCC(CCC(F)(C(=O)OC)S(=O)(=O)CCC(F)(F)F)C(F)(F)F (stereo not shown) [present compound (11), methyl 2-fluoro-5-(trifluoromethyl)-2-(3,3,3-trifluoropropylsulfonyl)heptanoate] | ≥ 90 | ≥ 70 | 100 | – |
| COC(=O)C(CCC(C)C(F)(F)F)S(=O)(=O)CCC(F)(F)F (stereo not shown) [present compound (1), methyl 6,6,6-trifluoro-5-methyl-2-(3,3,3-trifluoropropylsulfonyl)hexanoate] | ≥ 90 | – | – | – |
| CC(CCC(Cl)(C(N)=O)S(=O)(=O)CCC(F)(F)F)C(F)(F)C(F)(F)F (stereo not shown) [present compound (31), 2-chloro-6,6,7,7,7-pentafluoro-5-methyl-2-(3,3,3-trifluoropropylsulfonyl)heptanamide] | ≥ 90 | ≥ 70 | 100 | – |
| COC(CCC(Cl)(C(N)=O)S(=O)(=O)CCC(F)(F)F)C(F)(F)F (stereo not shown) [present compound (26), 2-chloro-6,6,6-trifluoro-5-methoxy-2-(3,3,3-trifluoropropylsulfonyl)hexanamide] | ≥ 90 | ≥ 70 | 100 | – |
| CC(C)C(CCC(Cl)(C(N)=O)S(=O)(=O)CCC(F)(F)F)C(F)(F)F (stereo not shown) [present compound (20), 2-chloro-6-methyl-5-(trifluoromethyl)-2-(3,3,3-trifluoropropylsulfonyl)heptanamide] | ≥ 90 | ≥ 70 | 100 | – |
| CSC(CCC(C#N)S(=O)(=O)CCC(F)(F)F)C(F)(F)F (stereo not shown) [present compound (30), 6,6,6-trifluoro-5-methylthio-2-(3,3,3-trifluoropropylsulfonyl)hexanenitrile] | ≥ 90 | ≥ 70 | 100 | – |
